The values below come from patent US20060003951A1, “Anti-viral 7-deaza L-nucleosides” (Micrologix Biotech Inc., priority 2001, published 2006).

What is called melting point is the temperature of the solid-liquid transition.

Each structure is given as a SMILES string.

Regarding `Nc1ncnc2c1ccn2[C@@H]1C[C@@H](O)[C@H](CO)O1`, the melting point is 214.8 to 215.5 °C.
